Source: PubChem BioAssay (NCI)
Several values for one entry are separate records, joined by “and”; a condition that tells them apart may be missing. Identical values can stand only once.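 Test compounds were applied to cells in 96-well plates for 48 hours at 5 doses. The concentration for 50% growth inhibition is given as GI50. TGI denotes the concentration required for complete inhibition of growth.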

How the values were obtained:
Assay in all cases: NCI tumour cell line growth inhibition, 48 h
RXF 393 renal = test system: RXF 393 renal
COLO 205 colon = test system: COLO 205 colon
CCRF-CEM leukemia = test system: CCRF-CEM leukemia
SF-539 CNS = test system: SF-539 CNS
RPMI-8226 leukemia = test system: RPMI-8226 leukemia
SF-295 CNS = test system: SF-295 CNS
UO-31 renal = test system: UO-31 renal
SK-MEL-2 melanoma = test system: SK-MEL-2 melanoma
IGROV1 ovarian = test system: IGROV1 ovarian
SNB-19 CNS = test system: SNB-19 CNS

| Structure (SMILES) | TGI (RXF 393 renal) [µM] | TGI (COLO 205 colon) | TGI (CCRF-CEM leukemia) [µM] | TGI (SF-539 CNS) [µM] | TGI (RPMI-8226 leukemia) [µM] | TGI (SF-295 CNS) [µM] | TGI (UO-31 renal) | TGI (SK-MEL-2 melanoma) | TGI (IGROV1 ovarian) | TGI (SNB-19 CNS) | GI50 (RXF 393 renal) [µM] | GI50 (COLO 205 colon) [µM] | GI50 (CCRF-CEM leukemia) [µM] | GI50 (SF-539 CNS) [µM] | GI50 (RPMI-8226 leukemia) [µM] | GI50 (SF-295 CNS) [µM] | GI50 (UO-31 renal) [µM] | GI50 (IGROV1 ovarian) [µM] | GI50 (SK-MEL-2 melanoma) [µM] | GI50 (SNB-19 CNS) [µM] |
| --- | --- | --- | --- | --- | --- | --- | --- | --- | --- | --- | --- | --- | --- | --- | --- | --- | --- | --- | --- | --- |
| NC(=O)/N=C/c1c(O)c2ccccc2oc1=O | 82.4 | > 100 µM | > 100 | > 100 | > 100 | > 100 | > 100 µM | > 100 µM | > 100 µM | > 100 µM | – | – | – | – | – | – | – | – | – | – |
| C/C(=N\NC(N)=S)c1nc2ncccc2[nH]1 | > 100 | > 100 µM | > 100 | > 100 | > 100 | > 100 | 82.1 µM | > 100 µM | > 100 µM | > 100 µM | – | – | – | – | – | – | – | – | – | – |
| COC(=O)c1c(O)ccc2c1c1c(n2Cc2cccc(C)c2)C(=O)c2ccccc2C1 | 30 | 22.3 µM | 36.8 | 61.4 | 31 | > 75 | > 75 µM | > 75 µM | > 75 µM | > 75 µM | – | – | – | – | – | – | – | – | – | – |
| COC(=O)C12Oc3ccc(-c4ccc5c(c4O)C(O)=C4C(=O)CC(C)C(O)C4(C(=O)OC)O5)c(O)c3C(O)=C1C(=O)CC(C)C2O (centres undefined) | 0.935 | 0.195 µM | 0.0848 | 1.35 | 0.31 | 1.84 | 0.858 µM | 1.02 µM | > 100 µM | > 100 µM | – | – | – | – | – | – | – | – | – | – |
| COc1cc(O)c(Cc2ccccc2O)c(O)c1C(=O)CCc1ccccc1 | 18.9 | 16.5 µM | 22.5 | 15.7 | 9.8 | 16.1 | 23.4 µM | 12.8 µM | 29.8 µM | 26.4 µM | – | – | – | – | – | – | – | – | – | – |
| COc1ccc2c3/c(=C\c4ccc(N(C)C)cc4)c4ccccc4n3[n+](C)c2c1 | 1.04 | 0.757 µM | 2.09 | 0.748 | 0.136 | – | 1.66 µM | – | > 100 µM | – | 0.0603 | 0.029 | 0.051 | 0.0409 | < 0.0112 | 0.202 | 0.484 | 0.24 | – | – |
| O=C1C(=C([O-])c2ccccc2)C(=O)c2ccccc21.O=C1C(=C([O-])c2ccccc2)C(=O)c2ccccc21.[Ni+2] | > 100 | – | > 100 | > 100 | > 100 | > 100 | > 100 µM | > 100 µM | > 100 µM | > 100 µM | 48.8 | – | 54.7 | 59.2 | > 100 | 41.4 | 27.2 | 48.2 | 98 | 58.8 |
| Cn1c(=O)c2[nH]c(SC/C(=N/O)c3ccc(Br)cc3)nc2n(C)c1=O | 3.76 | > 100 µM | 57.1 | – | > 100 | 4.1 | – | 4.26 µM | 5.55 µM | 8.35 µM | 2.05 | > 100 | 14.3 | – | 34.7 | 1.82 | – | 2.27 | 2.08 | 2.94 |
| CC1OC(O[C@@H]2C=C3CC[C@@H]4[C@H](CC[C@]5(C)[C@@H](c6ccc(=O)oc6)CC[C@]45O)[C@@]3(C)CC2)C(O)C(OC2OC(CO)C(O)C(O)C2O)C1O (some centres undefined) | – | 0.163 µM and 0.029 µM | 0.133 | 0.000699 | – | – | 0.00316 µM and 0.0263 µM | 0.0409 µM and 0.0257 µM | 0.0219 µM and 0.0562 µM | 0.113 µM and 0.0674 µM | – | 0.000949 | – | – | – | – | – | – | 0.000866 | 0.00038 |
| CC(=O)OCC1OC(N=[N+]=[N-])C(OC(C)=O)C(OC(C)=O)C1OC1OC(COC(C)=O)C(OC(C)=O)C(OC(C)=O)C1OC(C)=O (centres undefined) | > 100 | > 100 µM | > 100 | > 100 | > 100 | > 100 | > 100 µM | > 100 µM | > 100 µM | > 100 µM | – | – | – | – | – | – | – | – | – | – |
| O=c1[nH]c(=O)n(C2CC(O)C(CO)O2)cc1Br (centres undefined) | > 100 | > 100 µM | > 100 | > 100 | > 100 | > 100 | > 100 µM | > 100 µM | > 100 µM | > 100 µM | – | – | – | – | – | – | – | – | – | – |
| Cc1cc(O)c2c(c1)C(C1c3cccc(O)c3C(=O)c3c(O)cc(C)cc31)c1cccc(O)c1C2=O (centres undefined) | 0.861 | 0.378 µM | 10.1 | 0.556 | 0.8 | 4.31 | 1.78 µM | 0.692 µM | 4.56 µM | 17.1 µM | – | – | – | – | – | – | – | – | – | – |
| C=C1CCOC2(C(O)C(C)(O)CO)NC(=O)C1(O)NC2=O (centres undefined) | > 100 | > 100 µM | > 100 | > 100 | > 100 | > 100 | > 100 µM | > 100 µM | > 100 µM | > 100 µM | – | – | – | – | – | – | – | – | – | – |
